Measured values reported in article PMC3793931 (PLoS ONE, 2013).
pIC50: −log10 of the molar value. Read-outs that look alike come from different tables or passages of the source.

Assays:
[1] = test system: 5-LO; settings: cited from earlier work
[2] = target: T1, microsomal prostaglandin E2 synthase-1 (mPGES-1) (Homo sapiens, UniProt O14684); assay: biochemical; settings: cell-free, A549 microsomes; n=3; >10 = significant inhibition at 10 µM, >>10 = no significant inhibition at 10 µM
T1 sequence (O14684 1-152): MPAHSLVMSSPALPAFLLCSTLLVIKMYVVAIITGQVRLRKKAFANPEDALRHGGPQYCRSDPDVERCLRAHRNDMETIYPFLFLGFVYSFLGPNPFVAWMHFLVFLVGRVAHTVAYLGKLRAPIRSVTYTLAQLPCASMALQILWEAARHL
Method: Preparations of human A549 cells and determination of mPGES-1 activity was performed as described previously [10]. In brief, cells were treated with 1 ng/mL interleukin-1β (IL-1β) for 48 h at 37 °C, 5% CO2. Cells were harvested, sonicated and the homogenate was subjected to differential centrifugation at 10,000×g for 10 min and 174,000×g for 1 h at 4 °C. The pellet (microsomal fraction) was resuspended in 1 ml homogenization buffer (0.1 M potassium phosphate buffer, pH 7.4, 1 mM phenylmethanesulfonyl fluoride, 60 µg/mL soybean trypsin inhibitor, 1 µg/mL leupeptin, 2.5 mM glutathione, and 250 mM sucrose), and the total protein concentration was determined. Microsomal membranes were diluted in potassium phosphate buffer (0.1 M, pH 7.4) containing 2.5 mM glutathione. Test compounds or vehicle (0.1% DMSO) were added, and after 15 min at 4 °C reaction (100 µl total volume) was initiated by addition of PGH2 at the indicated concentrations. After 1 min at 4 °C, the reaction was terminated using stop solution (100 µl; 40 mM FeCl2, 80 mM citric acid, and 10 µM 11β-PGE2 as internal standard). PGE2 was separated by solid-phase extraction and analyzed by RP-HPLC as described previously [10].

[3] = target: T2, 5-LO in PMNL (Homo sapiens, UniProt P09917); assay: cell-based; settings: intact human PMNL, A23187 2.5 µM + 20 µM AA, n=3, >10 = significant inhibition at 10 µM, >>10 = no significant inhibition at 10 µM
T2 sequence (P09917 1-674): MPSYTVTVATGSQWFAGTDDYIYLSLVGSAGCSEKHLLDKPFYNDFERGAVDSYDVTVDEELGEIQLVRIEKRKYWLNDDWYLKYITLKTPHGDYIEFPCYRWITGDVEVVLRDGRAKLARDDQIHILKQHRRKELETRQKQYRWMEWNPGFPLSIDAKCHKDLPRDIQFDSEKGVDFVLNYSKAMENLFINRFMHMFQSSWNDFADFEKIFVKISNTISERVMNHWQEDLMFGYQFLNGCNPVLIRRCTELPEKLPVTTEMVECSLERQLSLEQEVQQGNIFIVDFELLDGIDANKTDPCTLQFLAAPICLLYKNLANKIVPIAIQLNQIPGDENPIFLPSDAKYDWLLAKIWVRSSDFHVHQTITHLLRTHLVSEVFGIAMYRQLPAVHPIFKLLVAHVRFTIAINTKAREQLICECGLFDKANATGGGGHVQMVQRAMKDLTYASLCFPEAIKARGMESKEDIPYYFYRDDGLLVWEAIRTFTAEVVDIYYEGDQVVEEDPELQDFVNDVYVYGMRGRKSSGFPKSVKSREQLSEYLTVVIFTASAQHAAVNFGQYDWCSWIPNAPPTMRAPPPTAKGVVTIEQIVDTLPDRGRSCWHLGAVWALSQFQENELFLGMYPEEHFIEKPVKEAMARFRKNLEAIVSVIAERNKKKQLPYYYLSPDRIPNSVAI
Method: The blood was centrifuged at 4,000×g for 20 min at 20°C for preparation of leukocyte concentrates. Leukocyte concentrates were subjected to dextran sedimentation and centrifugation on LSM 1077 cushions (PAA Laboratories, Linz, Austria). Contaminating erythrocytes of pelleted PMNL were lysed by hypotonic lysis. PMNL were washed twice in ice-cold PBS and finally resuspended in PBS pH 7.4 containing 1 mg/mL glucose and 1 mM CaCl2 (PGC buffer) (purity > 96-97%).
For determination of LO products in intact PMNL (5 × 10^6), cells were resuspended in 1 mL PGC buffer, preincubated for 15 min at 37°C with test compounds or vehicle (0.1% DMSO), and incubated for 10 min at 37°C with the indicated stimuli. Thus, the Ca^2+-ionophore A23187 (2.5 µM) was added together with 20 µM AA and 10 min later the reaction was stopped on ice by addition of 1 mL of ice-cold methanol. Then, 30 µL 1 N HCL and 500 µL PBS, and 200 ng prostaglandin B1 were added and the samples were subjected to solid phase extraction on C18-columns (100 mg, UCT, Bristol, PA, USA). 5-LO products (LTB4 and its trans-isomers and 5-H(P)ETE) were analyzed by RP-HPLC and quantities calculated on the basis of the internal standard PGB1.

[4] = target: T3, human recombinant 5-LO (Homo sapiens, UniProt P09917); assay: cell-free 5-LO activity assay with purified human recombinant 5-LO
T3 sequence (P09917 1-674): T2 sequence (P09917 1-674)

[5] = test system: NF-κB; assay: NF-κB transactivation, luciferase reporter in TNF-α-stimulated HEK-293/NF-κB-luc cells; format: cell-based; settings: Homo sapiens
Method: The transactivation of a NF-κB-driven luciferase reporter gene was quantified in HEK-293/NF-κB-luc cells (Panomics, RC0014) as previously described. […] Six hours later cells were seeded in 96-well plates and incubated at 37°C and 5% CO2 overnight. On the next day, the medium was exchanged with serum-free DMEM and cells were treated with the respective test compounds dissolved in DMSO. To account for potential unspecific effects of the solvent, the final concentration of DMSO was always adjusted to 0.1%. One hour after treatment the cells were stimulated with 2 ng/mL human recombinant TNF-α for 6 h, and after a lysis step the luminescence of the firefly luciferase and the fluorescence of EGFP were quantified on a GeniosPro plate reader (Tecan; Grödig, Austria). The luciferase signal derived from the NF-κB reporter was normalized by the EGFP-derived fluorescence to account for differences in cell number.
To estimate of cell viability one part of the experiments were performed in cells that were not transfected with pEGFP-C1, but instead stained for 1 h in serum-free medium supplemented with 2 μM Cell Tracker Green CMFDA (C2925; Invitrogen) as described. Since this fluorescent probe is retained inside living cells, it can be used to monitor cell membrane integrity and thus has been broadly used to quantify viable cells. For quantification of NF-κB activity in this experimental setting the luciferase-derived signal from the NF-κB reporter was normalized to the Cell Tracker Green CMFDA-derived fluorescence to account for differences in cell number. Potential differences in cell viability were monitored by comparison of the Cell Tracker Green CMFDA fluorescence of the solvent vehicle treated control cells and cells treated with the indicated compounds.

[6] = test system: COX-1; parameters: method as in PMID 19289158; settings: at 45 µM; cited from earlier work
[7] = test system: COX-2; parameters: method as in PMID 19289158; settings: at 45 µM; cited from earlier work
[8] = target: T4, inhibitor of NF-κB kinase subunit beta (IKK2) (Homo sapiens, UniProt O14920); assay: IKK2 kinase inhibition; format: biochemical; settings: at a concentration of up to 50 μM; data not shown
T4 sequence (O14920 1-756): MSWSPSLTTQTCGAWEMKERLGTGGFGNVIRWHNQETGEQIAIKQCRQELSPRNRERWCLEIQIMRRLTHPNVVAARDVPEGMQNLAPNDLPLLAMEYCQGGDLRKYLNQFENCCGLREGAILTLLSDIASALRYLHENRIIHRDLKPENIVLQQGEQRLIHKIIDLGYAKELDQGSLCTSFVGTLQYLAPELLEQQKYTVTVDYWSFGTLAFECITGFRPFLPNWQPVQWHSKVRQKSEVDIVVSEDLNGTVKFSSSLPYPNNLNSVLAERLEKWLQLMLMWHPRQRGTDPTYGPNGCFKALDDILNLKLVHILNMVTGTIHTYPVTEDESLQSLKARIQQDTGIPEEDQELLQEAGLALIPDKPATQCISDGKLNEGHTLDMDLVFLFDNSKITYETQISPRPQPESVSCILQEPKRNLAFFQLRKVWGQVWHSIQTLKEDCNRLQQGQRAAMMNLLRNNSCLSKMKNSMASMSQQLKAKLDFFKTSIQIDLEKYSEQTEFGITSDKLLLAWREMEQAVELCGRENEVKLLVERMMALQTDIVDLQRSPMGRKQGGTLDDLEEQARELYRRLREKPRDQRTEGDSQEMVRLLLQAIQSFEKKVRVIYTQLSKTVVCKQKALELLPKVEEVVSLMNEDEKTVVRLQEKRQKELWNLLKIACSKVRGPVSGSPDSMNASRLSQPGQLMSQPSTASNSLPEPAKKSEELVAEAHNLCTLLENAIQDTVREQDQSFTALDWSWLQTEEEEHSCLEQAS
Excerpt: Luciferase reporter gene expression reflects a downstream event of the NF-κB signaling cascade and cannot provide insights into the molecular targets contributing to the observed NF-κB inhibition. Thus, we tested the active compounds 4 and 5 for their potential to suppress the activity of the inhibitor of NF-κB kinase subunit beta (IKK2) as previously described, since it is a prominent upstream target of the NF-κB signaling cascade. […] Accordingly, this kinase is not a direct target of the NF-κB inhibiting depsides 4 and 5.

[9] = test system: leukocyte recruitment to the peritoneum; assay: thioglycollate-induced peritonitis, leukocyte count in peritoneal lavage; format: in vivo, C57BL/6J mice; settings: mouse
Excerpt: C57BL/6J male, 8-9 weeks old mice were housed in individually ventilated cages and fed with mouse chow and acidified water ad libitum in the mouse facility of the Institute of Vascular Biology and Thrombosis Research (Vienna, Austria). Animal care and all experimental procedures were approved by the Animal Experimental Committee of the Medical University of Vienna and by the Austrian Ministry of Science (license no. BMWF-66.009/0117-II/3b/2012).
The mice of the treatment groups – sterile thioglycollate and perlatolic acid or thioglycollate alone - (3 animals per group) were pre-treated i.p. with 1 mL of 6 µM perlatolic acid or 1 µL of DMSO dissolved in 1 mL of saline. Thirty minutes later the animals were injected i.p. with another 3 mL of saline with or without sterile thioglycollate (4%), and containing again 2 μL DMSO or perlatolic acid. Five hours after the second injection mice were sacrificed by carbon dioxide exposure and peritoneal cavities were washed three times with 2 mL of cold PBS containing 3 mM EDTA and collected as intra-peritoneal lavage. The leukocyte count in the peritoneum of untreated control mice was assessed by lavage. Mice without thioglycollate treatment were used as controls. The volume of the collected lavage was measured and the cell count determined by haemocytometer.

[10] = test system: UACC-62 melanoma cells; settings: cited from earlier work
[11] = test system: B16-F10 melanoma cells; settings: cited from earlier work
[12] = test system: 12-LO; parameters: method as in PMID 15636173; settings: cited from earlier work
[13] = HEK293, TNF-α-stimulated HEK-293/NF-κB-luc cells, n=3, read-out: NF-κB IC50

Structure (SMILES) | pIC50 [2] | pIC50 [3] | pIC50 [4] | also measured
COc1cc(C)c(C(=O)Oc2cc(C)c(C(=O)O)c(O)c2C)c(O)c1C=O [baeomycesic acid] |  |  |  | pIC50 ([1]; read-out: 5-LO IC50): 5.08
CCOC(=O)c1c(C)cc(O)c(C=O)c1O [compound 1, ethyl haematommate] | < 5.00 | < 5.00 | 5.12 | 
COC(=O)c1c(C)cc(O)c(C)c1O [compound 2, methylbetaorcinolcarboxylate] | < 5.00 | < 5.00 | < 5.00 | 
COC(=O)c1c(C)cc(OC(=O)c2c(C)cc(O)c(C=O)c2O)c(C)c1O [compound 3, atranorin] | < 5.00 | < 5.00 | < 5.00 | pIC50 [5, 13]: 4.70; COX-1 inhibition [6]: ~45%; COX-2 inhibition [7]: ~45%; activity against 5-LO [1]: inactive
CCCCCc1cc(OC)cc(O)c1C(=O)Oc1cc(O)c(C(=O)O)c(CCC)c1 [compound 4, imbricaric acid] | 5.72 | 5.28 | 5.46 | pIC50 ([5]; HEK293, read-out: NF-κB IC50): 5.70; IKK2 inhibition [8]: did not inhibit IKK2
CCCCCc1cc(OC(=O)c2c(O)cc(OC)cc2CCCCC)cc(O)c1C(=O)O [compound 5, perlatolic acid] | 6.40 | 5.74 | 6.40 | pIC50 [5, 13]: 5.15; IKK2 inhibition [8]: did not inhibit IKK2; reduction of thioglycollate-induced increase in total leukocyte count in peritoneal lavage fluid ([9]; i.p. co-administration, 5 h after TG injection, n=3, p<0.05): 30-40%; toxic effects observed in the animals ([9]; i.p., acute inflammation model): no hints of toxic effects; cytotoxicity on UACC-62 melanoma cells [10]: moderate selective cytotoxicity; cytotoxicity on B16-F10 melanoma cells [11]: moderate selective cytotoxicity
CCCCCc1cc(OC)cc(O)c1C(=O)O [compound 6, 4-O-metylolivetolcarboxylic acid] | < 5.00 | < 5.00 | < 5.00 | 
CCCCCc1cc(OC)cc(O)c1C(=O)OCC [compound 7, ethyl-4-O-methylolivetolcarboxylate] | < 5.00 | < 5.00 | < 5.00 | 
CCCCCc1cc(O)cc(O)c1C(=O)OCC [compound 8, ethyl olivetolate] | < 5.00 | 5.17 | < 5.00 | 
CCCCCc1cc(O)cc(OC)c1 [compound 9, olivetolmonomethylether] | < 5.00 | < 5.00 | 5.14 | 
CCCCCc1cc(O)cc(O)c1 [compound 10, olivetol] | < 5.00 | < 5.00 |  | 
CCCc1cc(O)cc(O)c1 [compound 11, divarinol] | < 5.00 | < 5.00 |  | 
CCCCCc1c2c(cc(O)c1C(=O)O)OC(=O)c1c(cc(OC)cc1C(=O)CCCC)O2 [lobaric acid] |  |  |  | pIC50 ([1]; read-out: 5-LO IC50): ≤ 4.55; pIC50 [12]: ≤ 4.55
C=C1C(=O)O[C@H]2[C@H]1CC/C(C)=C/CC[C@@]1(C)O[C@@H]21 [parthenolide, reference compound] |  |  |  | pIC50 [5, 13]: 5.82
